Experimental data from US20250134799A1, “COMPOSITION CONTAINING NERO DI TROIA POMACE EXTRACT” (PLANBIO COSMETICS SRL, priority 2022, published 2025).

Test system: HaCaT cells
Experiment: Cellular viability of HaCaT cells by MTS colorimetric assay
Assay type: cell-based, human
Details: 24 hours
Protocol: The aim of this study was to evaluate in vitro the effect of GExtract NdT (obtained in Example 1) on the viability of the human keratinocyte cell line HaCaT. The evaluation was performed on cells exposed to GExtract NdT at a dilution of 2% in complete medium for 24 hours. The cellular viability was measured by MTS colorimetric essay through the absorbance measurement obtained from the conversion of a bioreduced tertazolium compound from viable cells into a coloured formazan soluble in the culture medium. The HaCaT cells were exposed for 24 hours to 2% of GExtract NdT of and Triton-X 100 and subsequently the viability was evaluated by MTS assay.

TRITON-X 100
Concentration from which the surfactant lysed all the cells: ≥ 0.01% | % CTR (cell viability, percentage normalized on the control group) (0.005% (v/v)): 52.098% | % CTR (cell viability, percentage normalized on the control group) (0.01% (v/v)): 0% | % CTR (cell viability, percentage normalized on the control group) (0.05% (v/v)): 0% | % CTR (cell viability, percentage normalized on the control group) (0.5% (v/v)): 0%
